Structures can show the parent of a compound that is named as a salt.
Tests used:
[1] = system: Parkinsonian non-human primates; assay: Parkinsonian motor disability scores (MDS) versus sedation scores; format: in vivo; settings: nalbuphine 0.016 mg/kg-0.50 mg/kg in primates; the FIGURE
Excerpt: The foregoing summary, as well as the following detailed description of the invention, will be better understood when read in conjunction with the appended drawings. The FIGURE is a graph showing total sedation scores as a function of motor disability in non-human primates treated with nalbuphine HCl monotherapy.
In other words, severity of dopamine deficiency is a predictor of the sedation severity for the same dose of nalbuphine given to different animals.
Parkinsonian non-human primates (n=6) were injected (s.c.) with Nalbuphine HCl (NB, dissolved in saline) and evaluated for changes in parkinsonian motor disability (MDS) and drug effects on the nervous system (DENS). Evaluations were performed immediately before injection (baseline), at 30 minutes post-injection and again every 20 minutes thereafter for 110 minutes or until effects were no longer observable. […]
Animals (n=6) were injected (s.c.) with NB immediately prior to receiving L-dopa (LD; levodopa methyl ester plus 25% benserazide, dissolved in saline and given s.c.). The LD dose was determined individually for each animal based on ‘on’ response and consistency of dyskinesia. Animals were evaluated for changes in parkinsonian motor disability scores (MDS), drug effects on the nervous system (Sedation) and severity of dyskinesias. […]

[2] = system: Parkinsonian non-human primates; assay: Drug effects on the nervous system (DENS) sedation scores, nalbuphine monotherapy; format: in vivo; settings: for Sedation Items: Appetite / Sedation Items: Attentiveness / Sedation Items: Eye Movement / Sedation Items: Mouth (excessive salivation, drooling) / Sedation Items: Reactivity: DENS score, total of all intervals; for Sedation Items: Total: total sedation score
Method: Parkinsonian non-human primates (n=6) were injected (s.c.) with Nalbuphine HCl (NB, dissolved in saline) and evaluated for changes in parkinsonian motor disability (MDS) and drug effects on the nervous system (DENS). Evaluations were performed immediately before injection (baseline), at 30 minutes post-injection and again every 20 minutes thereafter for 110 minutes or until effects were no longer observable. Five NB doses (0.0, 0.016, 0.05, 0.16, 0.50 mg/kg) were tested in each animal with each dose tested 3 times in all animals.
Itemized Sedation scores (see Uthayathas et al., “Assessment of adverse effects of neurotropic drugs in monkeys with the ‘drug effects on the nervous system’ (DENS) scale,” J Neurosci Methods. 2013 Apr. 30; 215(1):97-102, for complete description of the DENS scale, incorporated by reference herein in its entirety). The items in this scale are given in the table with the exception of “Involuntary Movements”, “Bowel” and “Bladder”, which were omitted because they were not scored with this scale. Scores are total values from adding all intervals. Higher scores reflect increased sedative effects. […] Values represent the means±SEM of all animals (n=6).

[3] = Pharmacokinetic parameters (Cmax, AUC, Tmax) of opioid given alone or with dopaminergic agent; settings: sc, 0.25 mg/kg; for AUC / Cmax: plasma; for Tmax: serum
[4] = NB 0.016 mg/kg s.c., mean ± SEM n=6
[5] = NB 0.05 mg/kg s.c., mean ± SEM n=6
[6] = NB 0.16 mg/kg s.c., mean ± SEM n=6
[7] = NB 0.5 mg/kg s.c., mean ± SEM n=6

Oc1ccc2c3c1O[C@H]1[C@@H](O)CC[C@@]4(O)[C@@H](C2)N(CC2CCC2)CC[C@]314 [NB, Nalbuphine HCl]
parkinsonian motor disability scores (MDS) versus sedation scores [1]: correlate with sedation scores
Sedation Items: Appetite [2, 4]: 0.13 ± 0.13
Sedation Items: Attentiveness [2, 4]: 2.00 ± 0.73
Sedation Items: Eye Movement [2, 4]: 0.17 ± 0.17
Sedation Items: Mouth (excessive salivation, drooling) [2, 4]: 0.13 ± 0.09
Sedation Items: Reactivity [2, 4]: 0.67 ± 0.36
Sedation Items: Total ([2]; NB 0.016 mg/kg s.c.): 3.08
Sedation Items: Appetite [2, 5]: 0.56 ± 0.26
Sedation Items: Attentiveness [2, 5]: 2.75 ± 1.07
Sedation Items: Eye Movement [2, 5]: 0.54 ± 0.25
Sedation Items: Mouth (excessive salivation, drooling) [2, 5]: 0.17 ± 0.11
Sedation Items: Reactivity [2, 5]: 1.58 ± 0.85
Sedation Items: Total ([2]; NB 0.05 mg/kg s.c.): 5.61
Sedation Items: Mouth (excessive salivation, drooling) ([2]; NB 0.16 mg/kg s.c., mean n=6): 0.00
Sedation Items: Appetite [2, 6]: 1.48 ± 1.03
Sedation Items: Attentiveness [2, 6]: 3.17 ± 1.51
Sedation Items: Eye Movement [2, 6]: 2.44 ± 0.94
Sedation Items: Reactivity [2, 6]: 4.1 ± 1.60
Sedation Items: Total ([2]; NB 0.16 mg/kg s.c.): 11.19
Sedation Items: Appetite [2, 7]: 4.79 ± 0.78
Sedation Items: Attentiveness [2, 7]: 5.17 ± 1.34
Sedation Items: Eye Movement [2, 7]: 3.29 ± 1.10
Sedation Items: Mouth (excessive salivation, drooling) [2, 7]: 1.17 ± 1.07
Sedation Items: Reactivity [2, 7]: 6.65 ± 2.15
Sedation Items: Total ([2]; NB 0.5 mg/kg s.c.): 21.06
AUC ([3]; average AUC of opioid, nalbuphine 0.25 mg/kg subcutaneously with L-DOPA 25 mg/kg subcutaneously): ~89 ng·h/mL
AUC ([3]; average AUC, nalbuphine 0.25 mg/kg subcutaneously, alone): ~96 ng·h/mL
Cmax ([3]; average Cmax of opioid, nalbuphine 0.25 mg/kg subcutaneously with L-DOPA 25 mg/kg subcutaneously): ~55 ng/mL
Cmax ([3]; average Cmax, nalbuphine 0.25 mg/kg subcutaneously, alone): ~49 ng/mL
Tmax ([3]; average Tmax of opioid, nalbuphine 0.25 mg/kg subcutaneously with L-DOPA 25 mg/kg subcutaneously): ~32 min
Tmax ([3]; average Tmax, nalbuphine 0.25 mg/kg subcutaneously, alone): ~37 min

Reference: patent publication US20150352099A1, “Compositions and Methods of Reducing Sedation” (Mentinova Inc., priority 2014, published 2015)
